From US4469701A, “Pyrrolid-3-en-2-ones and pharmaceutical methods of use thereof” (Stauffer Chemical Company, priority 1983, dated 1984)
Where two headings read alike, the source gives them in different places.

Legend:
starch loaded mice = assay: Carbohydrate (CHO) efficiency/hypoglycemic, starch loaded mice; format: in vivo, mouse; conditions: subcutaneous (s.c.)
glucose-loaded mice = assay: Hypoglycemic, glucose-loaded mice; format: in vivo, mouse; conditions: s.c., glucose-loaded mice
Protocol: Reduction in blood glucose concentration by more than 20% (>20) in fasted, glucose-loaded (1 gm/kg) mice one hour after dosing, p.o., indicates activity (test compound administered at same time as glucose load).
^5 H = Hypoglycemic. Percent decrease in serum glucose concentration
in glucose loaded mice hr. following a 100 mg/kg oral dose.

mice [1] = assay: Central anticholinergic: oxotremorine tremors in mice; conditions: Mus musculus, ip, 1 h, read-out: ED-100, central anticholinergic
rats [2] = assay: Antiedema: carrageenan paw edema in rats; format: in vivo; conditions: Rattus norvegicus, po, 3 h, read-out: ED-100, antiedema
Protocol: Rats are dosed p.o. one hour before intraplantar injection of carrigeenan (0.1 ml, 1% susp.). Inhibition of paw edema by more than 30% (>30) 3 hours after carriegeenan injection indicates acute anti-edema activity.

mice [3] = assay: Pupil dilation in mice; format: in vivo, mouse; conditions: i.p., reference compounds and the doses thereof
Protocol: If the pupil diameter of mice exceeds 1.0 mm (>1) in bright light 30 minutes after dosing, i.p., ganglionic blockage or anti-cholinergic activity is indicated in the absence of adrenergic action. The following are reference compounds and the doses thereof.

[4] = test system: spontaneously hypertensive rats (SHR); assay: Antihypertensive: blood pressure (tail cuff) in spontaneously hypertensive rats (SHR); format: in vivo, rat; conditions: for inhibition in vivo at 100 mg/kg: 6 hr. after a 100 mg/kg oral dose, significance >10, read-out: Antihypertensive: percent decrease in systolic blood pressure in spontaneously hypertensive rats
Protocol: Blood pressure was measured indirectly (tail cuff) in unanesthetized, unheated spontaneously hypertensive rats (SHR) before and 2, 4, and 6 hours after p.o. dosing. Reduction in mean pressure by more than 10% (>10) at any two consecutive measurement times after dosing indicates antihypertensive activity.

mice [5] = assay: Acute toxicity / autonomic effects observation; conditions: mouse, in vivo
Protocol: Mice were dosed at 300 mg/kg, per oral (p.o.) and […], interperitoneal (i.p.) for observation of any acute toxic symptoms or autonomic effects during the subsequent 72 hours. If none were noted, pharmacological evaluation proceeded employing doses and concentrations for each test based on appropriate multiples of doses required by suitable reference compounds. If acute toxicity was observed initially, the minimal toxic dose was determined and pharmacological screening doses were reduced proportionately.

mice [6] = assay: Antiarrhythmic: chloroform-induced cardiac arrhythmia in mice; format: in vivo, mouse; conditions: 15 min. after a 200 mg/kg intraperitoneal dose; significance <2
Protocol: ^2 A = Antiarrythmic. Less than 2/3 mouse hearts fibrillating 15 min.

rats [7] = assay: Bradycardia: heart rate by EKG in rats; format: in vivo, rat; conditions: Rattus norvegicus, 0.75 h; 45 min. after a 5 mg/kg oral dose in rats; significance >10; read-out: B = Bradycardiac: percent decrease in heart rate
Protocol: […] Decrease in heart rate by more than 10% (>10) is considered a bradycardic effect.
Percent decrease in heart rate 45 min. after a 5
mg/kg oral dose in rats.

rats [8] = assay: Antiulcer: stress induced gastric ulcers in rats; format: in vivo, rat; conditions: for inhibition in vivo at 50 mg/kg: Rattus norvegicus, 4 hr. following a 50 mg/kg oral dose in rats, significance >60, read-out: U = Antiulcerative: percent inhibition of stress ulcers
Protocol: Fasted rats were dosed, p.o., 30 minutes before immobilization in wire mesh and partial immersion in water for 4 hours. Inhibition of the resulting stress induced gastric ulcers by more than 60% (>60) indicates activity.
^6 U = Antiulcerative. Percent inhibition of stress ulcers 4 hr.
following a 50 mg/kg oral dose in rats.

[9] = test system: hypercholesterolemic mice; assay: Hypocholesterolemic: serum cholesterol in hypercholesterolemic mice; format: in vivo, mouse; conditions: hypercholesterolemic mice; for inhibition in vivo at 200 mg/kg: Mus musculus, 2 oral doses of 200 mg/kg 20 hr. apart, significance >20, read-out: C = Hypocholesterolemic: percent decrease in serum cholesterol
Protocol: Mice made hypercholesterolemic by being fed a high cholesterol-cholic acid diet for 7 days were dosed on the sixth and seventh days, p.o. After fasting overnight, reduction in serum cholesterol concentration by more than 15% (>15) from hypercholesterolemic control mice indicates activity.
^4 C = Hypocholesterolemic. Percent decrease in serum cholesterol in
hypercholesterolemic mice given 2 oral doses of 200 mg/kg drug candidate

[10] = test system: hypercholesterolemic mice; assay: HP-betalipoprotein: serum heparin precipitating lipoprotein (HPL); format: in vivo, mouse; conditions: hypercholesterolemic mice; reference compounds
Description: Reduction of serum heparin precipitating lipoprotein (HPL) concentrations (corresponding to low density lipoprotein and very low density lipoprotein fractions) in the same hypercholesterolemic mice from Test 6 above by more than 20% (>20) from control animals indicates activity.

[11] = p.o., rats, reference compounds

Compound: insulin
- ED-100, CHO efficiency/hypoglycemic (insulin) (starch loaded mice): 0.25 U
- ED-100, hypoglycemic, mice (insulin) (glucose-loaded mice): 0.25 U

Compound: N[C@@H]1C[C@H]1c1ccccc1 (relative stereo) [tranylcypromine]
- ED100 (mice [1]): > 25 mg/kg

Compound: CCn1c2c(c3ccccc31)CCSC2(C)CCN(C)C (stereo not shown) [tandamine]
- ED100 (mice [1]): > 50 mg/kg

Compound: CC(=O)Oc1ccccc1C(=O)O [aspirin]
- ED100 (rats [2]): 150 mg/kg

Compound: CNC1(C)C2CCC(C2)C1(C)C (stereo not shown) [mecamylamine, reference compound]
- Reference dose, pupil dilation (mice [3]): 2.5 mg/kg
- ED100 ([4]; Rattus norvegicus, po, SHR, reference compounds, read-out: ED-100, antihypertensive): 10 mg/kg

Compound: CSc1ccc2c(c1)N(CCC1CCCCN1C)c1ccccc1S2 (stereo not shown) [thioridazine]
- ED100 (mice [1]): 10 mg/kg

Compound: CCCCC1C(=O)N(c2ccccc2)N(c2ccccc2)C1=O [phenylbutazone]
- ED100 (rats [2]; [11]): 50 mg/kg

Compound: CC1(C)CCCC(C)(C)N1CC1=CC(=O)N(c2cc(C(F)(F)F)cc(C(F)(F)F)c2)C1 [Compound 3]
- Autonomic effect / autonomic inhibition (mice [5]): No evidence of autonomic inhibition
- A = Antiarrythmic: mouse hearts fibrillating (of 3) (mice [6]): 3
- inhibition in vivo at 5 mg/kg (rats [7]): 14%
- inhibition in vivo at 100 mg/kg ([4]; Rattus norvegicus): 32%
- Antihypertensive activity, duration ([4]; p.o.): perhaps of long duration
- Antihypertensive activity, onset / comparison in words ([4]; p.o.): somewhat slow in onset
- Dose with borderline antihypertensive result ([4]; p.o.): 10 mg/kg
- inhibition in vivo at 50 mg/kg (rats [8]): 38%
- inhibition in vivo at 200 mg/kg [9]: 0%

Compound: O=C(CCCN1CCC(O)(c2ccc(Cl)cc2)CC1)c1ccc(F)cc1 [haloperidol]
- ED100 (mice [1]): 10 mg/kg

Compound: CNCCCN1c2ccccc2CCc2ccccc21 [desipramine]
- ED100 (mice [1]): > 25 mg/kg

Compound: CC1(C)CCCC(C)(C)N1CC1=CC(=O)N(c2cccc(Br)c2)C1 [Compound 14]
- A = Antiarrythmic: mouse hearts fibrillating (of 3) (mice [6]): 3
- inhibition in vivo at 5 mg/kg (rats [7]): 0%
- inhibition in vivo at 100 mg/kg ([4]; Rattus norvegicus): 4%
- inhibition in vivo at 50 mg/kg (rats [8]): 50%
- Antiulcer effect, in words (rats [8]; rat, in vivo): activity appears to be weaker than with Compound 13
- inhibition in vivo at 200 mg/kg [9]: 5%

Compound: c1cc(N2CCCCC2)ccc1OC12CC3CC(CC(C3)C1)C2 [Compound U-41792, reference compound]
- ED-100, HP-betalipoprotein [10]: 200 mg/kg
- ED-100, hypocholesterolemic ([9]; p.o., reference compounds): 200 mg/kg

Compound: CN(C)CCCN1c2ccccc2CCc2ccccc21 [imipramine]
- ED100 (mice [1]): 25 mg/kg

Compound: COc1ccc2cc([C@H](C)C(=O)O)ccc2c1 [naproxen]
- ED100 (rats [2]; [11]): 5 mg/kg

Compound: COc1ccc2c(c1)c(CC(=O)O)c(C)n2C(=O)c1ccc(Cl)cc1 [indomethacin]
- ED100 (rats [2]): 4 mg/kg
